Results from patent publication US20130317094A1, “USE OF ELLAGITANNINS AS INHIBITORS OF BACTERIAL QUORUM SENSING” (priority 2008, published 2013).

Tests used:
LasA protease = test: LasA staphylolytic assay of culture supernatants; type: cell-based, Pseudomonas aeruginosa; details: for LasA Activity: PAO1 grown with 40 μg/ml of sample; for decrease in LasA activity compared to control: crude extract printed 40 pg/ml, purified compounds 40 μg/ml
Method: LasA belongs to the p-lytic endopeptidase class of proteases (Kessler, 1995) and plays a major role in host tissue degradation (Kharazmi, 1989; Morihara & Homma, 1985). LasA protease activity was determined by measuring the ability of culture supernatants to lyse boiled S. aureus cells (Kong et al., Int. J. Med. Microbiol., 296:133-139, 2006). There was a significant decrease in LasA activity compared to that of the control when strain PAO1 was grown in the presence of C. erectus crude extract at 1 mg/ml (91% decrease), and a lesser effect at […] (26% decrease) (Table 1). Purified vescalagin and castalagin affected significant reductions in LasA activity as well, with decreases of 73% and 80%, respectively (Table 1).

LasB elastase = test: LasB elastolytic activity of culture supernatants (elastin Congo red); type: cell-based, Pseudomonas aeruginosa; details: for decrease in LasB activity compared to control: 40 ug/ml; for Elastase Activity: PAO1 grown with 40 μg/ml of sample
Method: LasB elastase is a zinc metalloprotease capable of affecting the host immune system and destroying biological tissue (Bever & Iglewski, 1988). The elastolytic activity of culture supernatants was determined using elastin Congo red (ECR; Sigma, St. Louis, Mo.) (Ohman et al., 1980). There was a significant decrease in LasB activity compared to that of the control when PAO1 was grown in the presence of C. erectus at 1 mg/ml (70% decrease) or 40 ug/ml (60% decrease) (Table 1). Purified vescalagin and castalagin also affected significant reductions in LasB activity, with decreases of 67% and 63%, respectively (Table 1).

pyoverdin = test: Pyoverdin production (supernatant fluorescence); type: cell-based, Pseudomonas aeruginosa; details: PAO1 grown with 40 μg/ml of sample
Source text: Pyoverdins function as siderophores essentially starving host tissues by competing with mammalian transferrin for iron. They also promote pathogenicity by stimulating bacterial growth (Cox & Adams, 1985), while auto-regulating themselves and the production of other toxins. Relative concentration of pyoverdin was based on fluorescence of the supernatant at an excitation wavelength of 405 nm and an emission wavelength of 465 nm (Gemini EM microplate reader). […] This is consistent with our previous data on C. erectus (Adonizio et al., 2008b).

C12-AHL (OdDHL) = test: AHL production, C12-AHL; type: cell-based, Pseudomonas aeruginosa; details: 40 μg/ml of sample
Source text: (§1) P. aeruginosa manufactures two main QS signaling molecules N-(3-oxododecanoyl)-L-homoserine lactone (OdDHL) and N-butanoyl-L-homoserine lactone (BHL) called autoinducers (Pearson et al., Proc. Natl. Acad. Sci. USA, 92:1490-1494, 1994). These molecules diffuse into the environment, and when they reach a putative threshold concentration, they activate the QS receptor genes.

C4-AHL (BHL) = test: AHL production, C4-AHL; type: cell-based, Pseudomonas aeruginosa; details: for AHL production C4-AHL: 40 μg/ml of sample
Source text: as §1

lasI = test: QS gene expression, promoter-lacZ fusion β-galactosidase assay, lasI; type: cell-based, Pseudomonas aeruginosa; details: 40 μg/ml of sample
Method: (§2) Samples were tested at the following concentrations: 1 mg/ml crude extract of C. erectus, 40 μg/ml crude extract, 40 μg/ml vescalagin, or 40 μg/ml castalagin. These additions were compared to a media-only control for the reduction of QS.

lasR = details: 40 μg/ml of sample
Method: as §2

rhlI = details: 40 μg/ml of sample
Method: as §2

rhlR = details: 40 μg/ml of sample
Method: as §2

[1] = system: QS genes (lasI, lasR, rhlI, rhlR); test: QS gene expression, summary over all tested QS genes; type: cell-based, Pseudomonas aeruginosa; details: 40 μg/ml
Method: as §2

[2] = system: P. aeruginosa PAO1-derived biomonitor strains pPCS 1001 and pPCS 1002; test: Anti-QS agar well bioassay with lacZ biomonitor strains; type: cell-based, Pseudomonas aeruginosa; details: 10 μl aliquot per well
Method: These strains harbor lacZ fusions to the QS gene promoter regions enabling blue/white selection for QS activity. […] Briefly, LB agar plates were seeded with a lawn of one of the biomonitor strains and allowed to dry for 1 hour. Small wells were then cut and aspirated from the agar, and 10 μl aliquots of each fraction were pipetted into each well. Wells were checked at 18 h and 24 h for zones of QS inhibition.
Each fraction was pipetted into a small well in an agar plate seeded with one of these biomonitor strains and the appropriate reagents for visualization of lacZ activity.

LasB = details: P. putida grown in the presence of 30 μg/ml; cited from earlier work
P. putida = details: concentrations up to 30 μg/ml; cited from earlier work

SMILES | LasA Activity (LasA protease) | decrease in LasA activity compared to control (LasA protease) [%] | decrease in LasB activity compared to control (LasB elastase) [%] | Elastase Activity (LasB elastase) | Pyoverdin production (pyoverdin) | AHL production C12-AHL (C12-AHL (OdDHL)) [µM] | AHL production C4-AHL (C4-AHL (BHL)) [µM] | Gene Expression (measured via β-galactosidase activity of the lacZ fusion products) las1 (lasI) [Milller Units] | Gene Expression (measured via β-galactosidase activity of the lacZ fusion products) lasR (lasR) [Milller Units] | Gene Expression (measured via β-galactosidase activity of the lacZ fusion products) rhll (rhlI) [Milller Units] | Gene Expression (measured via β-galactosidase activity of the lacZ fusion products) rhlR (rhlR) [Milller Units] | effect on expression of QS genes [1] | anti-QS activity of HPLC fractions of Fraction A [2] | reduction of BHL levels (C4-AHL (BHL); purified compound, 40 μg/ml) [%] | decrease in LasB activity (LasB) [%] | effect on growth (P. putida)
O=C1OC[C@H]2OC(=O)c3cc(O)c(O)c(O)c3-c3c(O)c(O)c(O)c4c3C(=O)O[C@H]([C@H]3OC(=O)c5c-4c(O)c(O)c(O)c5[C@H]3O)[C@@H]2OC(=O)c2cc(O)c(O)c(O)c2-c2c1cc(O)c(O)c2O [Castalagin, castalagin] | 0.048 ± 0.003 reduction in OD600/hour per μg total protein | 80 | 63 | 52.7 ± 9.0 absorbance at OD495 per μg of protein × 1000 | 4207 ± 150 fluorescence (405/465 nm) per μg of protein | 1.389 ± 0.20 | 0.703 ± 0.01 | 2465 ± 116 | 2160 ± 509 | 4542 ± 199 | 4904 ± 348 | reduced all QS gene levels save for rhlI | activity | – | – | –
O=C1OCC2OC(=O)c3cc(O)c(O)c(O)c3-c3c(O)c(O)c(O)c4c3C(=O)OC(C2OC(=O)c2cc(O)c(O)c(O)c2-c2c1cc(O)c(O)c2O)C1OC(=O)c2c-4c(O)c(O)c(O)c2C1O (centres unmarked) [Vescalagin, vescalagin] | 0.066 ± 0.008 reduction in OD600/hour per μg total protein | 73 | 67 | 47.2 ± 6.8 absorbance at OD495 per μg of protein × 1000 | 4226 ± 138 fluorescence (405/465 nm) per μg of protein | 1.227 ± 0.16 | 0.489 ± 0.01 | 2049 ± 93 | 1703 ± 297 | 3514 ± 306 | 4129 ± 287 | reduced all QS gene levels including rhlI to a greater extent than castalagin | activity | 21 | – | –
O=c1oc2c(O)c(O)cc3c(=O)oc4c(O)c(O)cc1c4c23 [ellagic acid] | – | – | – | – | – | – | – | – | – | – | – | – | – | – | 40 | no effect
